Reference: patent publication US8193369B2, “Benzimidazole cannabinoid agonists” (Janssen Pharmaceutica NV, priority 2007, dated 2012)

Test: CB1 related side-effects: body temperature lowering, LAD
Type: in vivo
Experimental: CB1 related undesired side-effects such as lowering of body temperature, flat body posture, and mydriasis were measured for a number of compounds of the present invention and a number of compounds covered by reference WO-2006/048754.

CCS(=O)(=O)c1ccc2c(c1)nc(C(C)(C)C)n2CC1CCOCC1 [Co. No. F, reference compound]
LAD (Lowest Acceptable Dose) at which lowering of body temperature was observed in more than half of the treated animals: 10 mg/kg
